Laboratory results taken from the NIST ThermoML archive (doi:10.1021/je300111m).
Where “and” joins values, the source holds several entries; their conditions need not be identical. Equal entries are not always repeated. ± gives the expanded uncertainty stated by the source.

Conditions: Liquid

vapor or sublimation pressure (243.03 K) | vapor or sublimation pressure (293.38 K) | vapor or sublimation pressure (243.23 K) | SMILES | vapor or sublimation pressure (222.83 K) | vapor or sublimation pressure (243.02 K) | vapor or sublimation pressure (243.18 K) | vapor or sublimation pressure (243.2 K) | vapor or sublimation pressure (273.12 K) | vapor or sublimation pressure (273.13 K) | vapor or sublimation pressure (293.43 K)
29.1 ± 0.5 kPa | 210.8 ± 3.5 kPa | – | CCCC [butane] | – | – | – | – | – | – | –
– | – | – | S [hydrogen sulfide] | 167.3 ± 2.8 kPa | 384 ± 6.2 kPa | 380.2 ± 6.2 kPa | 379.4 ± 6.2 kPa | 1030.2 ± 17 kPa | 1029.3 ± 17 kPa | 1793.7 ± 29 kPa
– | – | 168 ± 2.8 kPa and 168.2 ± 2.8 kPa | CCC [propane] | – | – | – | – | 473.5 ± 7.7 kPa | – | –
